For 18 molecules, T/C results are on record in PubChem BioAssay AID248 (DTP/NCI, 2004).

Inconclusive results and toxic doses are left out.

For this assay, the system named is L1210 leukemia ip in BDF1 mice, survival T/C. The assay is described as follows: NCI In Vivo Anticancer Drug Screen. Data for tumor model L1210 Leukemia (intraperitoneal) in B6D2F1 (BDF1) mice. The following applies: endpoint: mean survival time, higher = longer survival. A digest of the protocol:
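Read-out is survival time, reported as the treated-group measurement over the vehicle-control measurement.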

[1] abbreviates: dose: 100.0 mg/kg/injection, schedule: Q01DX009 (ip), vehicle: Klucel (hydroxypropylcellulose) (HPC).
Where [2] appears, read: dose: 100.0 mg/kg/injection, schedule: Q04DX003 (ip), vehicle: Klucel (hydroxypropylcellulose) (HPC).
[3] abbreviates: dose: 200.0 mg/kg/injection, schedule: Q01DX009 (ip), vehicle: Klucel (hydroxypropylcellulose) (HPC).
[4] abbreviates: dose: 200.0 mg/kg/injection, schedule: Q04DX003 (ip), vehicle: Klucel (hydroxypropylcellulose) (HPC).
Where [5] appears, read: dose: 100.0 mg/kg/injection, schedule: Q04DX002 (ip), vehicle: Klucel (hydroxypropylcellulose) (HPC).
The mark [6] stands for this setting: dose: 200.0 mg/kg/injection, schedule: Q04DX002 (ip), vehicle: Klucel (hydroxypropylcellulose) (HPC).
Where [7] appears, read: dose: 400.0 mg/kg/injection, schedule: Q04DX002 (ip), vehicle: Klucel (hydroxypropylcellulose) (HPC).
Where [8] appears, read: dose: 100.0 mg/kg/injection, schedule: Q01DX001 (ip), vehicle: saline.
The mark [9] stands for this setting: dose: 200.0 mg/kg/injection, schedule: Q01DX001 (ip), vehicle: saline.
Setting [10] is: dose: 100.0 mg/kg/injection, schedule: Q01DX001 (ip), vehicle: carboxymethylcellulose (CMC).
The mark [11] stands for this setting: dose: 400.0 mg/kg/injection, schedule: Q01DX001 (ip), vehicle: carboxymethylcellulose (CMC).
[12] abbreviates: dose: 50.0 mg/kg/injection, schedule: Q01DX009 (ip), vehicle: saline with Tween-80.
[13] abbreviates: dose: 100.0 mg/kg/injection, schedule: Q01DX009 (ip), vehicle: saline with Tween-80.
Setting [14] is: dose: 200.0 mg/kg/injection, schedule: Q01DX009 (ip), vehicle: saline with Tween-80.
The mark [15] stands for this setting: dose: 400.0 mg/kg/injection, schedule: Q01DX009 (ip), vehicle: Klucel (hydroxypropylcellulose) (HPC).

Regarding `COC(=O)NS(=O)(=O)c1cccs1`, the T/C is 98 % of control (dose: 100.0 mg/kg/injection, schedule: Q04DX002 (ip), vehicle: other); 94 % of control (dose: 200.0 mg/kg/injection, schedule: Q04DX002 (ip), vehicle: other); 102 % of control (dose: 400.0 mg/kg/injection, schedule: Q04DX002 (ip), vehicle: other).

As for `CN(Cc1ccccc1)Cc1ccccc1`, the T/C by setting is: (dose: 50.0 mg/kg/injection, schedule: Q01DX009 (ip), vehicle: Klucel (hydroxypropylcellulose) (HPC)) 100 % of control; under setting [1], 100 % of control; under setting [2], 97 % of control; under setting [3], 92 % of control; under setting [4], 97 % of control.

As to `NCC(c1ccccc1)c1ccccc1`, the T/C (dose: 1.25 mg/kg/injection, schedule: Q01DX009 (ip), vehicle: saline) is 103 % of control; the T/C (dose: 12.5 mg/kg/injection, schedule: Q04DX003 (ip), vehicle: saline) was 98 % of control; the T/C (dose: 25.0 mg/kg/injection, schedule: Q01DX009 (ip), vehicle: saline) is 98 % of control; the T/C (dose: 25.0 mg/kg/injection, schedule: Q04DX003 (ip), vehicle: saline) is 98 % of control; the T/C (dose: 50.0 mg/kg/injection, schedule: Q01DX009 (ip), vehicle: saline) is 95 % of control; the T/C (dose: 50.0 mg/kg/injection, schedule: Q04DX003 (ip), vehicle: saline) is 102 % of control.

As to `CC(C)C(C#N)(CCCCN1CCCCC1)c1cccc2ccccc12` (stereo not drawn), the T/C is, setting by setting: (dose: 100.0 mg/kg/injection, schedule: Q04DX003 (ip), vehicle: saline with Tween-80) 97 % of control; (dose: 200.0 mg/kg/injection, schedule: Q04DX003 (ip), vehicle: saline with Tween-80) 93 % of control.

Take `Cc1ccc(Cl)c(NC(=O)c2ccccc2Cl)c1`: the T/C under setting [5] was 97 % of control, the T/C under setting [6] is 97 % of control and the T/C under setting [7] is 104 % of control.

With `CCOC(=O)c1ccc(Oc2ncc([N+](=O)[O-])s2)cc1`, the T/C was 107 % of control (dose: 1.56 mg/kg/injection, schedule: Q01DX001 (ip), vehicle: saline); 96 % of control (dose: 1.56 mg/kg/injection, schedule: Q04DX003 (ip), vehicle: saline); 110 % of control (dose: 3.12 mg/kg/injection, schedule: Q01DX001 (ip), vehicle: saline); 100 % of control (dose: 3.12 mg/kg/injection, schedule: Q04DX003 (ip), vehicle: saline); 98 % of control (dose: 6.25 mg/kg/injection, schedule: Q01DX001 (ip), vehicle: saline); 96 % of control (dose: 6.25 mg/kg/injection, schedule: Q04DX003 (ip), vehicle: saline). The T/C by setting is: (dose: 9.2 mg/kg/injection, schedule: Q04DX003 (ip), vehicle: saline) 103 % of control; (dose: 14.0 mg/kg/injection, schedule: Q04DX003 (ip), vehicle: saline) 98 % of control; (dose: 21.0 mg/kg/injection, schedule: Q04DX003 (ip), vehicle: saline) 96 % of control; (dose: 29.0 mg/kg/injection, schedule: Q04DX003 (ip), vehicle: saline with Tween-80) 103 % of control; (dose: 29.0 mg/kg/injection, schedule: Q04DX003 (ip), vehicle: saline) 93 % of control; (dose: 45.0 mg/kg/injection, schedule: Q04DX003 (ip), vehicle: saline) 102 % of control. In addition, the T/C (dose: 65.0 mg/kg/injection, schedule: Q04DX003 (ip), vehicle: saline with Tween-80) was 86 % of control.

On to `Cc1c(O)ccc(O)c1C`, for which the T/C is 100 % of control under setting [8] and 95 % of control under setting [9].

Turning to `CCOC(=O)NC(/C=C/c1ccccc1)NC(=O)OCC`, the T/C (dose: 50.0 mg/kg/injection, schedule: Q01DX001 (ip), vehicle: carboxymethylcellulose (CMC)) was 92 % of control; the T/C under setting [10] was 95 % of control; the T/C under setting [8] was 102 % of control; the T/C under setting [9] was 96 % of control; the T/C under setting [11] was 95 % of control; the T/C (dose: 400.0 mg/kg/injection, schedule: Q01DX001 (ip), vehicle: saline) was 100 % of control.

In the case of `N#CC1(C(O)c2ccccc2)C=Cc2ccccc2N1C(=O)c1ccccc1` (stereo not drawn), the T/C was 98 % of control (dose: 100.0 mg/kg/injection, schedule: Q01DX001 (ip), vehicle: steriod suspending solution) and 95 % of control (dose: 400.0 mg/kg/injection, schedule: Q01DX001 (ip), vehicle: steriod suspending solution).

Turning to `CC1=CC(=O)C(C(=O)CC(O)(C(F)(F)F)C(F)(F)F)C(=O)O1` (stereo not drawn), the T/C was 92 % of control (dose: 12.5 mg/kg/injection, schedule: Q01DX009 (ip), vehicle: saline with Tween-80); 103 % of control (dose: 25.0 mg/kg/injection, schedule: Q01DX009 (ip), vehicle: saline with Tween-80); 88 % of control under setting [12].

`S=c1ncn(-c2ccccc2)[nH]1`: the T/C is, setting by setting: under setting [12], 103 % of control; under setting [13], 95 % of control; under setting [14], 95 % of control.

On to `COc1ccc(/C=C(\CC(=O)O)C(=O)O)cc1OC`, for which the T/C by setting is: under setting [1], 92 % of control; under setting [2], 96 % of control; under setting [3], 95 % of control; under setting [4], 91 % of control; under setting [15], 95 % of control; (dose: 400.0 mg/kg/injection, schedule: Q04DX003 (ip), vehicle: Klucel (hydroxypropylcellulose) (HPC)) 102 % of control.

As to `O=C1OCC/C1=C/OCCCCCCCCCCO/C=C1\CCOC1=O`, the T/C is 91 % of control under setting [5], 91 % of control under setting [6] and 94 % of control under setting [7].

On to `CC(C)(C)CC(C)(C)c1ccc(OCCOc2ccc(C(=O)O)cc2)cc1`, for which the T/C is 88 % of control under setting [1], 92 % of control under setting [3] and 92 % of control under setting [15].

For `CC[n+]1ccc(Nc2ccc(NC(=O)c3ccc(C(=O)Nc4ccc(Nc5cc[n+](CC)c(N)n5)cc4)cc3)cc2)nc1N`, the T/C is 190 % of control under setting [8]; 88 % of control (dose: 133.0 mg/kg/injection, schedule: Q01DX009 (ip), vehicle: saline); 228 % of control (dose: 150.0 mg/kg/injection, schedule: Q01DX001 (ip), vehicle: saline); 203 % of control (dose: 225.0 mg/kg/injection, schedule: Q01DX001 (ip), vehicle: saline).

As to `c1ccc(-c2nc(-c3ccccc3)c(-c3ccccc3)nc2-c2ccccc2)cc1`, the T/C is 89 % of control (dose: 100.0 mg/kg/injection, schedule: Q01DX001 (ip), vehicle: gum acacia); 91 % of control (dose: 200.0 mg/kg/injection, schedule: Q01DX001 (ip), vehicle: gum acacia); 86 % of control (dose: 400.0 mg/kg/injection, schedule: Q01DX001 (ip), vehicle: gum acacia).

In the case of `CCOC(=O)C1(Br)CCN(S(=O)(=O)c2ccc(C)cc2)c2ccccc2C1=O` (stereo not drawn), the T/C was 108 % of control under setting [10]; 103 % of control (dose: 200.0 mg/kg/injection, schedule: Q01DX001 (ip), vehicle: carboxymethylcellulose (CMC)); 100 % of control under setting [11].

On to `CCOCC(=O)Cc1ccccc1`, for which the T/C runs as follows: under setting [12], 95 % of control; under setting [13], 100 % of control; under setting [14], 92 % of control.
